The target in assay [1] is T1, Alkaline phosphatase, placental type (Homo sapiens, UniProt P05187). The experiment in a line: Binding affinity to human PLAP incubated for 15 mins by Fluorescence polarization assay. A general note: Fluorescence polarisation rises when a labelled molecule tumbles more slowly, as on binding a larger partner.
Assay [2] in a line: Inhibition of human recombinant PLAP using biotinylated CDP as substrate incubated for 30 mins by chemiluminescent assay.
Assay [3] deals with T1, Alkaline phosphatase, placental type. The experiment in a line: Inhibition of human PLAP using biotinylated CDP as substrate incubated for 30 mins by chemiluminescent assay.
Assay [4] addresses T2, Alkaline phosphatase, tissue-nonspecific isozyme (Homo sapiens) (UniProt P05186).
T2 sequence (whole entry): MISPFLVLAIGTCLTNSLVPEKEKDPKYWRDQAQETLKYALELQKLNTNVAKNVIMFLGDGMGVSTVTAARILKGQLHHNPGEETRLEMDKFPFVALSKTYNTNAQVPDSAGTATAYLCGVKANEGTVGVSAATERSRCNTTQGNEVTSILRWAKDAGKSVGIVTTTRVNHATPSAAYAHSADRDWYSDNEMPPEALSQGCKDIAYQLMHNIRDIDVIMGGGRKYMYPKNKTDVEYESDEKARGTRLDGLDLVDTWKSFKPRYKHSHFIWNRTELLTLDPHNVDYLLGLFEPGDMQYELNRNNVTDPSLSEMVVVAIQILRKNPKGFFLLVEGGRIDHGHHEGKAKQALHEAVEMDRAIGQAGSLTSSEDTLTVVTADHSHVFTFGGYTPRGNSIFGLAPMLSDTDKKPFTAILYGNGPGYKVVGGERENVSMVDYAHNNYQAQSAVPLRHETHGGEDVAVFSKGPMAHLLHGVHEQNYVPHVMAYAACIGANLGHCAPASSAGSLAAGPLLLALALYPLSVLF
The assay is described as follows: Binding affinity to TNAP (unknown origin) incubated for 15 mins by Fluorescence polarization assay.

Assay [5] concerns the target T2, Alkaline phosphatase, tissue-nonspecific isozyme (Homo sapiens). The experiment in a line: Inhibition of TNAP (unknown origin) at 20 uM using biotinylated CDP as substrate incubated for 30 mins by chemiluminescent assay.
The test system of assay [6] is HeLa. The assay is described as follows: Antitumor activity against human HeLa cells xenografted in […] nu/nu mouse assessed as cell accumulation in heart at 2.5 micromol/kg, iv incubated for 1 hr by microscopic analysis. The note with it: dose 2.5 µmol/kg. The class given is functional, organism-based. (In xenograft studies the graft and the host belong to different species.)

For assay [7], the system named is HeLa. The experiment in a line: Antitumor activity against human HeLa cells xenografted in […] nu/nu mouse assessed as cell accumulation in intestine at 2.5 micromol/kg, iv incubated for 1 hr by microscopic analysis. The note with it: dose 2.5 µmol/kg. Format: functional, organism-based.
Assay [8] relates to SK-OV-3. The assay is described as follows: Inhibition of human recombinant PLAP expressed in human SK-OV-3 cells assessed as localization of cell on membrane at 120 nM incubated for 15 mins by Hoechst 33342 staining based laser microscopic analysis.
The test system of assay [9] is HeLa. The assay is described as follows: Inhibition of human recombinant PLAP expressed in human HeLa cells assessed as localization of cell on membrane at 120 nM incubated for 15 mins by Hoechst 33342 staining based laser microscopic analysis.
Assay [10] concerns HeLa. The assay is described as follows: Antitumor activity against human HeLa cells xenografted in […] nu/nu mouse assessed as cell accumulation in lung at 2.5 micromol/kg, iv incubated for 1 hr by microscopic analysis. The class given is functional, organism-based. The note with it: dose 2.5 µmol/kg.
The test system of assay [11] is SK-OV-3. The experiment in a line: Inhibition of human recombinant PLAP expressed in human SK-OV-3 cells assessed as fluorescence intensity at 100 nM incubated for 1 hr by FACS based flow cytometry analysis. Format: cell-based. Background: A flow cytometer gives signals particle by particle.
Assay [12] has as its system HeLa. The assay is described as follows: Antitumor activity against human HeLa cells xenografted in […] nu/nu mouse assessed as cell accumulation in spleen at 2.5 micromol/kg, iv incubated for 1 hr by microscopic analysis. The class given is functional, organism-based. The note with it: dose 2.5 µmol/kg.
In another assay the test system is OVCAR-3. The experiment in a line: Inhibition of human recombinant PLAP expressed in human OVCAR-3 cells assessed as fluorescence intensity at 100 nM incubated for 1 hr by FACS based flow cytometry analysis. Format: cell-based.
The test system of assay [13] is HeLa. The assay is described as follows: Inhibition of human recombinant PLAP expressed in human HeLa cells assessed as fluorescence intensity at 100 nM incubated for 1 hr by FACS analysis. Format: cell-based.
In assay [14] the test system is HeLa. The assay is described as follows: Induction of cell death in human HeLa cells incubated for 72 hrs in presence of uniCAR T cells by microscopic analysis. Format: functional, cell-based.
Assay [15] concerns HeLa. The assay is described as follows: Antitumor activity against human HeLa cells xenografted in […] nu/nu mouse assessed as cell accumulation in liver at 2.5 micromol/kg, iv incubated for 1 hr by microscopic analysis. The class given is functional, organism-based. The note with it: dose 2.5 µmol/kg.

The source made the active and inactive calls. No cut-off for these calls is given here. Some results are limits rather than exact numbers.

T1 sequence (P05187 whole entry): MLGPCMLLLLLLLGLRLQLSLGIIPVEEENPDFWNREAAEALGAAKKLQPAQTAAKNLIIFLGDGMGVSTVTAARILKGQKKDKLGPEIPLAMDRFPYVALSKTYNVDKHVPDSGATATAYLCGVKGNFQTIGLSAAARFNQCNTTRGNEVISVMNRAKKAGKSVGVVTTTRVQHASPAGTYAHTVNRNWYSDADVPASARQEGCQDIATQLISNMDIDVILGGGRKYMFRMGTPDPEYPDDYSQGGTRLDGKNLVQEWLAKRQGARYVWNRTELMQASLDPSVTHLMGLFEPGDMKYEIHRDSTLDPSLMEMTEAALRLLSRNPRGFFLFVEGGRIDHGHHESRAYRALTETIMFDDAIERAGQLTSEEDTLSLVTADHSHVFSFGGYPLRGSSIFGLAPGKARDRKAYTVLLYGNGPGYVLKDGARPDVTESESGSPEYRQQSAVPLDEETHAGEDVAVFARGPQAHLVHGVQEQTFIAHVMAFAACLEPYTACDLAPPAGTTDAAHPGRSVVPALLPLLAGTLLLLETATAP

Consider `C[C@@H]1CCC[C@H](C)N1CCC(=O)N[C@@H](CCC(=O)N[C@@H](CCC(=O)O)C(=O)N[C@@H](CCCCN)C(N)=O)C(=O)NCCCSCc1ccc(F)cc1`, for which, in [1], the result was Active. The IC50 (commonly the concentration that gives 50% inhibition) in [2] amounted to 16 µM.
As for `CC(C)(C)OC(=O)n1c(-c2ccccc2C[C@@H](NC(=O)c2cnc3ccccn3c2=O)C(=O)O)cc2c(Cl)cccc21`, the result in assay [1] was Active. For the same molecule, the IC50 in assay [2] amounted to 13 µM.
With `Cc1ccc(NC(=O)NCC#Cc2ccc(C[C@H](NC(=O)c3nn(C)c(C)c3Br)C(=O)O)cc2)cc1`, in assay [1], the result was Active. The IC50 in assay [2] worked out at 19 µM.
The like results for `COc1c(Cl)cc(-c2cccc(C[C@H](NC(=O)c3cc(-c4ccc(C)o4)[nH]n3)C(=O)O)c2)cc1Cl` were, in that order, “Active” and 0.13 µM.
As for `Cc1cc(NC(=O)[C@H](CCC(=O)NCC(=O)N[C@@H](CCCCN)C(N)=O)NC(=O)CC(C)(C)CC(N)=O)ccc1Br`, the IC50 in assay [2] was above 20 µM.
As for `Cc1cc(-c2cnccn2)ccc1NC(=O)[C@@H](CCC(N)=O)n1cc(CNC(=O)c2ccc3ncn(CC(=O)c4ccc(O)c(O)c4)c3c2)nn1`, the result in assay [1] was Active. In addition, in assay [2], the IC50 was determined as 2.4 µM.
Regarding `Cc1ccc(NC(=O)NCC#Cc2ccc(C[C@@H](NC(=O)c3nn(C)c(C)c3Br)C(=O)O)cc2)cc1`, in assay [1], the outcome was Active. Further, the IC50 in [2] is above 20 µM.
As to `COc1c(Cl)cc(-c2cccc(C[C@@H](NC(=O)c3cc(-c4ccc(C)o4)[nH]n3)C(=O)O)c2)cc1Cl`, the result in assay [1] and in [4] was Active. For the same molecule, the IC50 in [3] turned out to be 0.032 µM. Moreover, in [5], the inhibition entry is “Active”.
Take `C[C@@H]1CCC[C@H](C)N1CCC(=O)N[C@@H](CCC(=O)NCC(=O)N[C@@H](CCCCN)C(N)=O)C(=O)NCCCSCc1ccc(F)cc1`: in assay [1], the result was Active. Also, the IC50 in assay [2] is above 20 µM.
As for `CC(C)(C)OC(=O)n1c(-c2ccccc2C[C@H](NC(=O)c2cnc3ccccn3c2=O)C(=O)O)cc2c(Cl)cccc21`, the result in assay [1] was Active. Also, the IC50 in assay [2] came to 4 µM.
The like results for `NC(=O)CC[C@@H](C(=O)Nc1cccc(Oc2ccccc2)c1)n1cc(CNC(=O)c2ccc3ncn(CC(=O)c4ccc(O)c(O)c4)c3c2)nn1` were, in that order, “Active” and 0.84 µM.
Turning to `Cc1cc(NC(=O)[C@@H](CCC(=O)N[C@@H](CCC(=O)O)C(=O)N[C@@H](CCCCN)C(N)=O)NC(=O)CC(C)(C)CC(N)=O)ccc1Br`, the concentration for half-maximal inhibition (IC50) in assay [2] was above 20 µM.
For the molecule `NC(=O)CC[C@H](C(=O)Nc1cccc(Oc2ccccc2)c1)n1cc(CNC(=O)c2ccc3ncn(CC(=O)c4ccc(O)c(O)c4)c3c2)nn1`, in assay [1], the result was Active. In addition, in assay [2], the IC50 is 5 µM.
`COc1c(Cl)cc(-c2cccc(C[C@@H](NC(=O)c3cc(-c4ccc(C)o4)[nH]n3)C(=O)NCCOCCOCCNC(=S)Nc3ccc(-c4c5ccc(=O)cc-5oc5cc(O)ccc45)c(C(=O)O)c3)c2)cc1Cl`: the outcome with HeLa [6], in the assay with HeLa [7], in the assay with SK-OV-3 [8], in the assay with HeLa [9], in the assay with HeLa [10] and in the assay with SK-OV-3 [11] was Active. Further, the outcome in the assay on HeLa [12], in the assay on OVCAR-3, in the assay on HeLa [13], in the assay with HeLa [14] and in the assay on HeLa [15] was Active.
As to `Cc1ccc2c(c1)NC(=O)C2CC(=O)N[C@@H](Cc1ccc(-c2ccc(Cl)cc2C(F)(F)F)cc1)C(=O)O` (stereo partly drawn), the result in assay [1] was Active. Besides, the IC50 in assay [2] was found to be 0.24 µM.
Turning to `Cc1cc(-c2cnccn2)ccc1NC(=O)[C@H](CCC(N)=O)n1cc(CNC(=O)c2ccc3ncn(CC(=O)c4ccc(O)c(O)c4)c3c2)nn1`, in [1], the result was Active. Further, in assay [2], the IC50 came out at 2.5 µM.
For the molecule `COC(=O)[C@H](Cc1ccc(-c2ccc(Cl)cc2C(F)(F)F)cc1)NC(=O)CC1C(=O)Nc2cc(C)ccc21` (stereo partly drawn), the result in assay [1] was Active. Further, the IC50 in assay [2] is 3.9 µM.
